# Assay results from patent publication US8119697B2 (Yissum Research Development Company of the Hebrew …, priority 2002, dated 2012).
# Legend:
# [1] = test system: lithium-induced nausea (conditioned rejection reactions); test: Taste Reactivity (TR) test: lithium-induced conditioned rejection reactions to saccharin solution; type: in vivo, rats; settings: for establishment of conditioned rejection reactions: pretreatment 5 mg/kg ip 30 min prior to conditioning trial (saccharin-lithium pairing), versus vehicle pretreatment
# Experimental: [drawing 3] • In Experiment 1 were used 29 male rats and in Experiment 2 were used 24 male Sprague-Dawley rats (Charles River Labs, St. Constant, Quebec), which weighed 290-350 gm on the conditioning day. They were individually housed in stainless steel hanging cages in a colony room kept at 21° C. on a 12:12 hr light:dark schedule with the lights on at 07.00 h. Throughout the experiment, the rats were maintained on ad-lib Purina Rat Chow and water. The procedures were approved by the Wilfrid Laurier University Animal Care Committee according to the guidelines of the Canadian Council on Animal Care. • b. The rats were surgically implanted with intra-oral cannulae as described by Parker, L. A. Learn Motiv., 13, 281-303 (1982). The surgical anesthesia preparation included administration of 0.4 mg/kg atropine solution i.p. 15 min prior to ketamine (75 mg/kg, i.p.) combined with xylazine (10 mg/kg, i.p.) which was dissolved in sterile water and administered at a volume of 1 ml/kg. On each of three subsequent days during recovery from surgery, the cannulae were flushed with a chlorhexidine rinse (Novlosan; 0.1% chlorhexidine) to prevent infection. • c. […] The rats were randomly assigned to independent groups on the basis of the pretreatment drug and the conditioning drug. In Experiment 1, the groups were as follows: CBD-lithium (n=8), CBD-saline (n=6), Vehicle-lithium (n=8), Vehicle-saline (n=7). In Experiment 2, the groups were as follows: CBD-DMH-lithium (n=6), CBD-DMH-saline (n=6), Vehicle-lithium (n=6), Vehicle-saline (n=6). […] The order of the test trials was counterbalanced among the rats in each group. • d. […] On this trial, the water bottles were replaced with tubes containing the saccharin solution and the amounts consumed over a 6 hr period of drinking were recorded. • i. Taste reactivity scoring: A rater blind to the experimental conditions scored the videotapes on two occasions in slow motion (⅕ speed) using the Observer (Noldus, NL) event-recording program on a PC computer. […]
# [2] = test system: conditioned taste avoidance; test: Consumption test of lithium-paired saccharin solution (conditioned taste avoidance); type: in vivo; settings: pretreatment 5 mg/kg prior to conditioning; 6 hr consumption test on day following final TR test, non-deprived rats
# Experimental: [drawing 3] • In Experiment 1 were used 29 male rats and in Experiment 2 were used 24 male Sprague-Dawley rats (Charles River Labs, St. Constant, Quebec), which weighed 290-350 gm on the conditioning day. They were individually housed in stainless steel hanging cages in a colony room kept at 21° C. on a 12:12 hr light:dark schedule with the lights on at 07.00 h. Throughout the experiment, the rats were maintained on ad-lib Purina Rat Chow and water. The procedures were approved by the Wilfrid Laurier University Animal Care Committee according to the guidelines of the Canadian Council on Animal Care. • b. The rats were surgically implanted with intra-oral cannulae as described by Parker, L. A. Learn Motiv., 13, 281-303 (1982). The surgical anesthesia preparation included administration of 0.4 mg/kg atropine solution i.p. 15 min prior to ketamine (75 mg/kg, i.p.) combined with xylazine (10 mg/kg, i.p.) which was dissolved in sterile water and administered at a volume of 1 ml/kg. […] On this trial, the water bottles were replaced with tubes containing the saccharin solution and the amounts consumed over a 6 hr period of drinking were recorded. • i. Taste reactivity scoring: A rater blind to the experimental conditions scored the videotapes on two occasions in slow motion (⅕ speed) using the Observer (Noldus, NL) event-recording program on a PC computer. […]
# [3] = test system: lithium-induced nausea (conditioned rejection reactions); settings: previously reported, rats; cited from earlier work
# [4] = test system: conditioned taste avoidance; settings: previously reported, as pretreatment agent; cited from earlier work
# CB1 receptor = CB1 receptor (Homo sapiens, UniProt P21554); settings: cited from earlier work
# Sequence of CB1 receptor (P21554 whole entry): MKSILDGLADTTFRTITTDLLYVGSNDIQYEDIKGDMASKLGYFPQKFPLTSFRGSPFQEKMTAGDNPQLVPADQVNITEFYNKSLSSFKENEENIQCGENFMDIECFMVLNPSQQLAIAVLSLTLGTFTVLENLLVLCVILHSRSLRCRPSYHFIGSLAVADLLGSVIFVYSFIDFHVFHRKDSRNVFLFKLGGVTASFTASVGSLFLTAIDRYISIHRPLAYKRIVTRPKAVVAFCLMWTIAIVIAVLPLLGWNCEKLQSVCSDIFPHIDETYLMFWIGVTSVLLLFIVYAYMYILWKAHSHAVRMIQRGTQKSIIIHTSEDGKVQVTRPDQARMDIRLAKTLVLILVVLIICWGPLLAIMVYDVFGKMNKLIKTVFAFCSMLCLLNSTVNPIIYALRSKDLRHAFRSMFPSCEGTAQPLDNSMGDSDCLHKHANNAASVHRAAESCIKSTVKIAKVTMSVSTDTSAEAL
Structure (SMILES),"expression of previously established conditioned rejection reactions ([1]; 5 mg/kg ip 30 min prior to TR test trial, lithium-conditioned male Sprague-Dawley rats, versus vehicle test trial)",establishment of conditioned rejection reactions [1],strength of avoidance response (ml saccharin solution consumed) [2],establishment and expression of conditioned rejection reactions [3],establishment of conditioned taste avoidance in a consumption test [4],affinity for the CB1 receptor (CB1 receptor)
"C=C(C)[C@@H]1CCC(C)=C[C@H]1c1c(O)cc(CCCCC)cc1O [CBD, cannabidiol]",attenuated the expression of previously established conditioned rejection reactions,attenuated the establishment of conditioned rejection reactions,did not modulate the strength of the avoidance response,,,
CCCCCc1cc(O)c2c(c1)OC(C)(C)[C@@H]1CCC(C)=C[C@@H]21 [THC],,,,interfered with the establishment and the expression of conditioned rejection reactions,,
Cc1nccn1CC1CCc2c(c3ccccc3n2C)C1=O (stereo not drawn) [ondansetron],,,,interfered with the establishment and the expression of conditioned rejection reactions,did not interfere with the establishment of conditioned taste avoidance,
"C=C(C)C1CCC(C)=CC1c1c(O)cc(C(C)(C)CCCCCC)cc1O (stereo not drawn) [CBD-DMH, cannabidiol-dimethyl heptyl]",,interfered with the establishment of conditioned rejection reactions,did not modulate the strength of the avoidance response,,,relatively weak affinity
